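Following 48 hours of exposure in 96-well plates, responses at five concentrations were used to interpolate endpoints linearly. GI50 is the concentration that inhibits growth by half.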 Active and inactive are the calls of the source. Cut-off read from the data, not from the text of the source: active = GI50 up to about 1.1 µM and inactive = higher.
Columns and labels:
Assay in all cases: inhibition of tumour cell growth, NCI panel, 48 h
UACC-62 = test system: UACC-62
MDA-N = test system: MDA-N
HOP-62 = test system: HOP-62
RPMI-8226 = test system: RPMI-8226
SK-OV-3 = test system: SK-OV-3
EKVX = test system: EKVX
SK-MEL-5 = test system: SK-MEL-5
M14 = test system: M14
MCF7 = test system: MCF7
TK-10 = test system: TK-10
A549 = test system: A549
IGROV-1 = test system: IGROV-1
SR = test system: SR
RXF 393 = test system: RXF 393
COLO 205 = test system: COLO 205
T47D = test system: T47D
HT-29 = test system: HT-29
NCI-H23 = test system: NCI-H23
HCC 2998 = test system: HCC 2998
SW-620 = test system: SW-620
OVCAR-8 = test system: OVCAR-8
CCRF-CEM = test system: CCRF-CEM
SNB-75 = test system: SNB-75
786-0 = test system: 786-0
K562 = test system: K562
SK-MEL-28 = test system: SK-MEL-28
HCT-15 = test system: HCT-15
MOLT-4 = test system: MOLT-4
CAKI-1 = test system: CAKI-1
SF-268 = test system: SF-268
HL-60 = test system: HL-60
MDA-MB-231 = test system: MDA-MB-231
PC-3 = test system: PC-3
KM12 = test system: KM12
DU-145 = test system: DU-145
HCT-116 = test system: HCT-116
SNB-19 = test system: SNB-19
Malme-3M = test system: Malme-3M
MDA-MB-435 = test system: MDA-MB-435
UACC-257 = test system: UACC-257
U-251 = test system: U-251
Hs-578T = test system: Hs-578T
LOX IMVI = test system: LOX IMVI
NCI-H460 = test system: NCI-H460
UO-31 = test system: UO-31
SF-539 = test system: SF-539
HOP-92 = test system: HOP-92
ACHN = test system: ACHN
NCI-H226 = test system: NCI-H226
OVCAR-4 = test system: OVCAR-4
SF-295 = test system: SF-295
NCI/ADR-RES = test system: NCI/ADR-RES
A498 = test system: A498
OVCAR-5 = test system: OVCAR-5
SN12C = test system: SN12C
NCI-H522 = test system: NCI-H522
OVCAR-3 = test system: OVCAR-3
SK-MEL-2 = test system: SK-MEL-2

CC(=O)OC[C@]12CCC3[C@@]4(C)CCCC(C)(C)C4CC[C@@]3(C)C1CC(C1=CC(=O)OC1O)O2 (stereo not given in full)
GI50 (UACC-62): 1.53 µM (inactive) | GI50 (MDA-N): 1.16 µM (inactive) | GI50 (HOP-62): 1.9 µM (inactive) | GI50 (RPMI-8226): 0.275 µM (active) | GI50 (SK-OV-3): 1.87 µM (inactive) | GI50 (EKVX): 2.44 µM (inactive) | GI50 (SK-MEL-5): 1.44 µM (inactive) | GI50 (M14): 1.5 µM (inactive) | GI50 (MCF7): 0.726 µM (active) | GI50 (TK-10): 1.75 µM (inactive) | GI50 (A549): 1.85 µM (inactive) | GI50 (IGROV-1): 1.19 µM (inactive) | GI50 (SR): 0.259 µM (active) | GI50 (RXF 393): 0.382 µM (active) | GI50 (COLO 205): 2.25 µM (inactive) | GI50 (T47D): 1.32 µM (inactive) | GI50 (HT-29): 0.692 µM (active) | GI50 (NCI-H23): 1.39 µM (inactive) | GI50 (HCC 2998): 1.47 µM (inactive) | GI50 (SW-620): 0.375 µM (active) | GI50 (OVCAR-8): 0.962 µM (active) | GI50 (CCRF-CEM): 0.271 µM (active) | GI50 (SNB-75): 1.8 µM (inactive) | GI50 (786-0): 0.219 µM (active) | GI50 (K562): 0.425 µM (active) | GI50 (SK-MEL-28): 0.512 µM (active) | GI50 (HCT-15): 0.516 µM | GI50 (MOLT-4): 0.252 µM (active) | GI50 (CAKI-1): 1.72 µM (inactive) | GI50 (SF-268): 1.44 µM (inactive) | GI50 (HL-60): 0.428 µM (active) | GI50 (MDA-MB-231): 1.26 µM (inactive) | GI50 (PC-3): 1.32 µM (inactive) | GI50 (KM12): 1.68 µM (inactive) | GI50 (DU-145): 4.07 µM (inactive)

CN1CCC2(CC1)/C(=N/C1CCCCC1)NC(=S)N2c1ccccc1
GI50 (UACC-62): > 100 µM (inactive) | GI50 (HCT-116): > 100 µM (inactive) | GI50 (HOP-62): > 100 µM (inactive) | GI50 (RPMI-8226): > 100 µM (inactive) | GI50 (SK-OV-3): > 100 µM (inactive) | GI50 (EKVX): > 100 µM (inactive) | GI50 (SK-MEL-5): > 100 µM (inactive) | GI50 (SNB-19): > 100 µM (inactive) | GI50 (M14): > 100 µM (inactive) | GI50 (Malme-3M): > 100 µM (inactive) | GI50 (MCF7): > 100 µM (inactive) | GI50 (MDA-MB-435): > 100 µM (inactive) | GI50 (UACC-257): > 100 µM (inactive) | GI50 (TK-10): > 100 µM (inactive) | GI50 (U-251): > 100 µM (inactive) | GI50 (A549): > 100 µM (inactive) | GI50 (IGROV-1): > 100 µM (inactive) | GI50 (Hs-578T): 13.8 µM (inactive) | GI50 (SR): > 100 µM (inactive) | GI50 (RXF 393): > 100 µM (inactive) | GI50 (COLO 205): > 100 µM (inactive) | GI50 (T47D): > 100 µM (inactive) | GI50 (LOX IMVI): > 100 µM (inactive) | GI50 (HT-29): > 100 µM (inactive) | GI50 (NCI-H23): > 100 µM (inactive) | GI50 (NCI-H460): > 100 µM (inactive) | GI50 (HCC 2998): > 100 µM (inactive) | GI50 (UO-31): > 100 µM (inactive) | GI50 (SW-620): > 100 µM (inactive) | GI50 (SF-539): > 100 µM (inactive) | GI50 (OVCAR-8): > 100 µM (inactive) | GI50 (CCRF-CEM): > 100 µM (inactive) | GI50 (SNB-75): > 100 µM (inactive) | GI50 (HOP-92): > 100 µM (inactive) | GI50 (786-0): > 100 µM (inactive) | GI50 (K562): > 100 µM (inactive) | GI50 (ACHN): 89.3 µM (inactive) | GI50 (NCI-H226): > 100 µM (inactive) | GI50 (SK-MEL-28): > 100 µM (inactive) | GI50 (HCT-15): > 100 µM | GI50 (MOLT-4): > 100 µM (inactive) | GI50 (OVCAR-4): > 100 µM (inactive) | GI50 (SF-268): > 100 µM (inactive) | GI50 (SF-295): > 100 µM (inactive) | GI50 (HL-60): > 100 µM (inactive) | GI50 (NCI/ADR-RES): > 100 µM (inactive) | GI50 (A498): > 100 µM (inactive) | GI50 (OVCAR-5): > 100 µM (inactive) | GI50 (MDA-MB-231): > 100 µM (inactive) | GI50 (SN12C): > 100 µM (inactive) | GI50 (KM12): > 100 µM (inactive) | GI50 (DU-145): > 100 µM (inactive)

CC(C)c1cc(C(C)C)c(B(c2ccccc2)c2ccccc2)c(C(C)C)c1B(c1ccccc1)c1ccccc1
GI50 (UACC-62): > 100 µM (inactive) | GI50 (MDA-N): > 100 µM (inactive) | GI50 (HCT-116): > 100 µM (inactive) | GI50 (HOP-62): > 100 µM (inactive) | GI50 (SK-OV-3): > 100 µM (inactive) | GI50 (EKVX): > 100 µM (inactive) | GI50 (SK-MEL-5): > 100 µM (inactive) | GI50 (M14): > 100 µM (inactive) | GI50 (Malme-3M): > 100 µM (inactive) | GI50 (UACC-257): > 100 µM (inactive) | GI50 (A549): > 100 µM (inactive) | GI50 (IGROV-1): > 100 µM (inactive) | GI50 (Hs-578T): > 100 µM (inactive) | GI50 (SR): > 100 µM (inactive) | GI50 (COLO 205): > 100 µM (inactive) | GI50 (T47D): > 100 µM (inactive) | GI50 (LOX IMVI): > 100 µM (inactive) | GI50 (HT-29): > 100 µM (inactive) | GI50 (NCI-H460): > 100 µM (inactive) | GI50 (SW-620): > 100 µM (inactive) | GI50 (OVCAR-8): > 100 µM (inactive) | GI50 (SNB-75): > 100 µM (inactive) | GI50 (HOP-92): > 100 µM (inactive) | GI50 (ACHN): > 100 µM (inactive) | GI50 (HCT-15): > 100 µM | GI50 (MOLT-4): > 100 µM (inactive) | GI50 (NCI-H522): > 100 µM (inactive) | GI50 (OVCAR-3): > 100 µM (inactive) | GI50 (OVCAR-4): > 100 µM (inactive) | GI50 (SK-MEL-2): > 100 µM (inactive) | GI50 (SF-268): > 100 µM (inactive) | GI50 (SF-295): > 100 µM (inactive) | GI50 (NCI/ADR-RES): > 100 µM (inactive) | GI50 (MDA-MB-231): > 100 µM (inactive) | GI50 (PC-3): > 100 µM (inactive) | GI50 (SN12C): > 100 µM (inactive) | GI50 (DU-145): > 100 µM (inactive)

CC(=O)O/N=C/c1c2ccccc2cc2ccccc12
GI50 (UACC-62): 40.9 µM (inactive) | GI50 (HCT-116): 41.6 µM (inactive) | GI50 (HOP-62): 30 µM (inactive) | GI50 (RPMI-8226): 51.6 µM (inactive) | GI50 (SK-OV-3): 22.2 µM (inactive) | GI50 (EKVX): 27.5 µM (inactive) | GI50 (SK-MEL-5): 58.9 µM (inactive) | GI50 (SNB-19): 50.5 µM (inactive) | GI50 (M14): > 100 µM (inactive) | GI50 (Malme-3M): 47 µM (inactive) | GI50 (MCF7): 78.2 µM (inactive) | GI50 (MDA-MB-435): 38 µM (inactive) | GI50 (UACC-257): > 100 µM (inactive) | GI50 (TK-10): 83 µM (inactive) | GI50 (U-251): 45.6 µM (inactive) | GI50 (A549): 47.9 µM (inactive) | GI50 (Hs-578T): 67.1 µM (inactive) | GI50 (SR): 28 µM (inactive) | GI50 (RXF 393): 21.7 µM (inactive) | GI50 (COLO 205): > 100 µM (inactive) | GI50 (T47D): 81.7 µM (inactive) | GI50 (LOX IMVI): > 100 µM (inactive) | GI50 (HT-29): 57.7 µM (inactive) | GI50 (NCI-H23): 76.6 µM (inactive) | GI50 (NCI-H460): 51.8 µM (inactive) | GI50 (UO-31): 36.2 µM (inactive) | GI50 (SW-620): 50.8 µM (inactive) | GI50 (SF-539): 51.1 µM (inactive) | GI50 (OVCAR-8): 19.1 µM (inactive) | GI50 (CCRF-CEM): > 100 µM (inactive) | GI50 (SNB-75): 22.1 µM (inactive) | GI50 (HOP-92): > 100 µM (inactive) | GI50 (K562): 85.7 µM (inactive) | GI50 (ACHN): 23.8 µM (inactive) | GI50 (NCI-H226): 46.9 µM (inactive) | GI50 (SK-MEL-28): 89.3 µM (inactive) | GI50 (HCT-15): 56.1 µM | GI50 (MOLT-4): > 100 µM (inactive) | GI50 (OVCAR-3): > 100 µM (inactive) | GI50 (CAKI-1): 82.4 µM (inactive) | GI50 (SF-268): 61.1 µM (inactive) | GI50 (SF-295): 47.4 µM (inactive) | GI50 (HL-60): > 100 µM (inactive) | GI50 (NCI/ADR-RES): 56.8 µM (inactive) | GI50 (A498): 24.9 µM (inactive) | GI50 (OVCAR-5): > 100 µM (inactive) | GI50 (MDA-MB-231): 20.9 µM (inactive) | GI50 (PC-3): > 100 µM (inactive) | GI50 (SN12C): 65.3 µM (inactive) | GI50 (KM12): 61.8 µM (inactive) | GI50 (DU-145): > 100 µM (inactive)
